Experimental data as given in patent publication US20240208992A1, “MACROCYCLES AS CFTR MODULATORS” (Idorsia Pharmaceuticals Ltd, priority 2021, published 2024).

Molecular target: human F508del-CFTR (Homo sapiens, UniProt P13569, DEL508-508)
Assay: F508del-CFTR cell surface expression (corrector activity), DiscoveRx ß-galactosidase complementation chemiluminescence assay in recombinant U2OS cell line;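 note: U2OS cells co-expressing ProLink-tagged F508del-CFTR and a membrane-anchored enzyme acceptor, where more surface CFTR restores β-galactosidase activity measured by chemiluminescence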
Settings: for EC50: EC50, F508del-CFTR cell surface expression, U2OS cells, 16h compound incubation, geomean values; for Emax: U2OS, in relation to Emax of corrector lumacaftor (=100%), arithmetic mean values

Sequence of human F508del-CFTR (P13569 with tags, fused parts or gaps DEL508-508): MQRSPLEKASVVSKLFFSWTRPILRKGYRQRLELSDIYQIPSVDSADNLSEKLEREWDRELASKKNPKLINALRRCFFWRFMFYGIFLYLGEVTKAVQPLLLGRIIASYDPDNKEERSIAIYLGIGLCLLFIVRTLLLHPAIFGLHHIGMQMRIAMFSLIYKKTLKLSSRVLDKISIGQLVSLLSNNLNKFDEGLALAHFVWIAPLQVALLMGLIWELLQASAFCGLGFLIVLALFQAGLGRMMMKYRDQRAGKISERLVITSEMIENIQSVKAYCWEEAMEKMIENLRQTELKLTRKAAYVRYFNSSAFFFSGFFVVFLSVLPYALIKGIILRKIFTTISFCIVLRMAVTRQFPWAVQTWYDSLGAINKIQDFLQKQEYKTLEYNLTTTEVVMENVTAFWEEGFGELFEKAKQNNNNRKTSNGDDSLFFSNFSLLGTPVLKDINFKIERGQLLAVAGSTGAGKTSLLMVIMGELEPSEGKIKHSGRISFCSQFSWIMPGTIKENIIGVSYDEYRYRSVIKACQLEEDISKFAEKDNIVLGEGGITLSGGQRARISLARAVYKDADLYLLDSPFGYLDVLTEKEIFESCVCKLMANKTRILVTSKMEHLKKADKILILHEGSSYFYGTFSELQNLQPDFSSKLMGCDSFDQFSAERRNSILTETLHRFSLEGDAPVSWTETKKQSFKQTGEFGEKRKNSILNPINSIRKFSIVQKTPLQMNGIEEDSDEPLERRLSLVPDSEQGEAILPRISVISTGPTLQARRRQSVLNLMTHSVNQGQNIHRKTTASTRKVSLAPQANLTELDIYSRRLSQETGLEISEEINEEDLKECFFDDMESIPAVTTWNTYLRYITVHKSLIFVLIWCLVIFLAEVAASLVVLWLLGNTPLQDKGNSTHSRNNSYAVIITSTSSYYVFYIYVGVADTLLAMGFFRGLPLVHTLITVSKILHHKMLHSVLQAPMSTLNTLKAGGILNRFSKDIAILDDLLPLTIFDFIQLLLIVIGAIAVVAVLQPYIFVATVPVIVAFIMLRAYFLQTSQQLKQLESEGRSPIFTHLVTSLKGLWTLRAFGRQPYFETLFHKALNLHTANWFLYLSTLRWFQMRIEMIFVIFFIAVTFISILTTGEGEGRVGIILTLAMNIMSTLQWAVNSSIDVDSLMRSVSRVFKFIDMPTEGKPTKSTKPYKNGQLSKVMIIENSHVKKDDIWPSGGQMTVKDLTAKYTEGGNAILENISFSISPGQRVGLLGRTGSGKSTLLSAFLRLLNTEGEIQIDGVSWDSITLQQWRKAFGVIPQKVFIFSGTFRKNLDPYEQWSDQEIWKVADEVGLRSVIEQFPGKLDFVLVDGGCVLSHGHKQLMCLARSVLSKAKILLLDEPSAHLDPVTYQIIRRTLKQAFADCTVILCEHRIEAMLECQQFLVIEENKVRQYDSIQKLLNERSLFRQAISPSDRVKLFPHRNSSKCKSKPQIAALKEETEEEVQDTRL

| EC50 [nM] | Emax [%] | Structure (SMILES) |
| --- | --- | --- |
| 300 | 323 | COc1noc(CCNC(=O)[C@@H]2CC(=O)N(C)[C@@H](CC(C)C)C(=O)N(C)[C@H](C)C(=O)N[C@H](Cc3ccccc3)COc3ccnc(OC)c3C(=O)N2)c1F [Example 765, (3R,6R,9S,13S)-3-benzyl-N-(2-(4-fluoro-3-methoxyisoxazol-5-yl)ethyl)-9-isobutyl-16-methoxy-6,7,10-trimethyl-5,8,11,15-tetraoxo-2,3,4,5,6,7,8,9,10,11,12,13,14,15-tetradecahydropyrido[3,4-p][1]oxa[4,7,10,14]tetraazacycloheptadecine-13-carboxamide] |
| 154 | 393 | COc1noc(CCNC(=O)[C@@H]2CC(=O)N(C)[C@@H](CC(C)C)C(=O)N3CCCC[C@@H]3C(=O)N[C@H](Cc3ccccc3)COc3cc(C)nc(OC)c3C(=O)N2)c1F [Example 766, (7S,11S,17aR,20R)-20-benzyl-N-(2-(4-fluoro-3-methoxyisoxazol-5-yl)ethyl)-11-isobutyl-4-methoxy-2,10-dimethyl-5,9,12,18-tetraoxo-5,6,7,8,9,10,11,12,15,16,17,17a,18,19,20,21-hexadecahydro-14H-dipyrido[2,1-f:3′,4′-p][1]oxa[4,7,10,14]tetraazacycloheptadecine-7-carboxamide] |
| 212 | 390 | COc1noc(CCNC(=O)[C@@H]2CC(=O)N(C)[C@@H](CC(C)C)C(=O)N3CCCC[C@@H]3C(=O)N[C@H](Cc3ccccc3)COc3ccnc(OC)c3C(=O)N2)c1F [Example 767, (7S,11S,17aR,20R)-20-benzyl-N-(2-(4-fluoro-3-methoxyisoxazol-5-yl)ethyl)-11-isobutyl-4-methoxy-10-methyl-5,9,12,18-tetraoxo-5,6,7,8,9,10,11,12,15,16,17,17a,18,19,20,21-hexadecahydro-14H-dipyrido[2,1-f:3′,4′-p][1]oxa[4,7,10,14]tetraazacycloheptadecine-7-carboxamide] |
| 140 | 346 | COc1cc(CCNC(=O)[C@@H]2CC(=O)N(C)[C@@H](CC(C)C)C(=O)N3CCCC[C@@H]3C(=O)N[C@H](Cc3ccccc3)COc3ccc4ncc(F)cc4c3C(=O)N2)on1 [Example 769, (9S,13S,19aR,22R)-22-benzyl-5-fluoro-13-isobutyl-N-(2-(3-methoxyisoxazol-5-yl)ethyl)-12-methyl-7,11,14,20-tetraoxo-7,8,9,10,11,12,13,14,17,18,19,19a,20,21,22,23-hexadecahydro-16H-pyrido[2′,1′:6,7][1]oxa[4,7,10,14]tetraazacycloheptadecino[16,17-f]quinoline-9-carboxamide] |
| 1000 | 228 | COc1cc(CCNC(=O)[C@@H]2CC(=O)N(C)[C@@H](CC(C)C)C(=O)N3CCCC[C@H]3C(=O)N[C@H](Cc3ccccc3)COc3ccc4ncc(F)cc4c3C(=O)N2)on1 [Example 770, (9S,13S,19aS,22R)-22-benzyl-5-fluoro-13-isobutyl-N-(2-(3-methoxyisoxazol-5-yl)ethyl)-12-methyl-7,11,14,20-tetraoxo-7,8,9,10,11,12,13,14,17,18,19,19a,20,21,22,23-hexadecahydro-16H-pyrido[2′,1′:6,7][1]oxa[4,7,10,14]tetraazacycloheptadecino[16,17-f]quinoline-9-carboxamide] |
| 597 | 299 | COc1cc(CCNC(=O)[C@@H]2CC(=O)N(C)[C@@H](CC(C)C)C(=O)N(C)[C@H](C)C(=O)N[C@H](Cc3ccccc3)COc3ccnc(OC)c3C(=O)N2)on1 [Example 771, (3R,6R,9S,13S)-3-benzyl-9-isobutyl-16-methoxy-N-(2-(3-methoxyisoxazol-5-yl)ethyl)-6,7,10-trimethyl-5,8,11,15-tetraoxo-2,3,4,5,6,7,8,9,10,11,12,13,14,15-tetradecahydropyrido[3,4-p][1]oxa[4,7,10,14]tetraazacycloheptadecine-13-carboxamide] |
| 514 | 343 | COc1cc(CCNC(=O)[C@@H]2CC(=O)N(C)[C@@H](CC(C)C)C(=O)N(C)[C@H](C)C(=O)N[C@H](Cc3ccccc3)COc3cc(C)nc(OC)c3C(=O)N2)on1 [Example 772, (3R,6R,9S,13S)-3-benzyl-9-isobutyl-16-methoxy-N-(2-(3-methoxyisoxazol-5-yl)ethyl)-6,7,10,18-tetramethyl-5,8,11,15-tetraoxo-2,3,4,5,6,7,8,9,10,11,12,13,14,15-tetradecahydropyrido[3,4-p][1]oxa[4,7,10,14]tetraazacycloheptadecine-13-carboxamide] |
| 841 | 339 | CC[C@@H]1C(=O)N[C@H](Cc2ccccc2)COc2cc(C)nc(OC)c2C(=O)N[C@H](C(=O)NCCc2cc(C)no2)CC(=O)N(C)[C@@H](CC(C)C)C(=O)N1C [Example 773, (3R,6R,9S,13S)-3-benzyl-6-ethyl-9-isobutyl-16-methoxy-7,10,18-trimethyl-N-(2-(3-methylisoxazol-5-yl)ethyl)-5,8,11,15-tetraoxo-2,3,4,5,6,7,8,9,10,11,12,13,14,15-tetradecahydropyrido[3,4-p][1]oxa[4,7,10,14]tetraazacycloheptadecine-13-carboxamide] |
| 875 | 359 | COc1nc(C)cc2c1C(=O)N[C@H](C(=O)NCCc1cc(C)no1)CC(=O)N(C)[C@@H](CC(C)C)C(=O)N(C)[C@H](CC(F)F)C(=O)N[C@H](Cc1ccccc1)CO2 [Example 775, (3R,6R,9S,13S)-3-benzyl-6-(2,2-difluoroethyl)-9-isobutyl-16-methoxy-7,10,18-trimethyl-N-(2-(3-methylisoxazol-5-yl)ethyl)-5,8,11,15-tetraoxo-2,3,4,5,6,7,8,9,10,11,12,13,14,15-tetradecahydropyrido[3,4-p][1]oxa[4,7,10,14]tetraazacycloheptadecine-13-carboxamide] |
| 325 | 360 | COc1cc(CCNC(=O)[C@@H]2CC(=O)N(C)[C@@H](CC(C)C)C(=O)N(C)[C@H](CC(F)(F)F)C(=O)N[C@H](Cc3ccccc3)COc3ccnc(OC)c3C(=O)N2)on1 [Example 776, (3R,6R,9S,13S)-3-benzyl-9-isobutyl-16-methoxy-N-(2-(3-methoxyisoxazol-5-yl)ethyl)-7,10-dimethyl-5,8,11,15-tetraoxo-6-(2,2,2-trifluoroethyl)-2,3,4,5,6,7,8,9,10,11,12,13,14,15-tetradecahydropyrido[3,4-p][1]oxa[4,7,10,14]tetraazacycloheptadecine-13-carboxamide] |
| 875 | 216 | CC(C)C[C@H]1C(=O)N2CCCC[C@H]2C(=O)N[C@H](Cc2ccccc2)COc2ccc3ncc(F)cc3c2C(=O)N[C@H](C(=O)NCCc2cc(C3CC3)no2)CC(=O)N1C [Example 777, (9S,13S,19aS,22R)-22-benzyl-N-(2-(3-cyclopropylisoxazol-5-yl)ethyl)-5-fluoro-13-isobutyl-12-methyl-7,11,14,20-tetraoxo-7,8,9,10,11,12,13,14,17,18,19,19a,20,21,22,23-hexadecahydro-16H-pyrido[2′,1′:6,7][1]oxa[4,7,10,14]tetraazacycloheptadecino[16,17-f]quinoline-9-carboxamide] |
| 141 | 302 | CC(C)C[C@H]1C(=O)N2CCCC[C@@H]2C(=O)N[C@H](Cc2ccccc2)COc2ccc3ncc(F)cc3c2C(=O)N[C@H](C(=O)NCCn2ncc(C3CC3)n2)CC(=O)N1C [Example 778, (9S,13S,19aR,22R)-22-benzyl-N-(2-(4-cyclopropyl-2H-1,2,3-triazol-2-yl)ethyl)-5-fluoro-13-isobutyl-12-methyl-7,11,14,20-tetraoxo-7,8,9,10,11,12,13,14,17,18,19,19a,20,21,22,23-hexadecahydro-16H-pyrido[2′,11:6,7][1]oxa[4,7,10,14]tetraazacycloheptadecino[16,17-f]quinoline-9-carboxamide] |
| 811 | 213 | CC(C)C[C@H]1C(=O)N2CCCC[C@H]2C(=O)N[C@H](Cc2ccccc2)COc2ccc3ncc(F)cc3c2C(=O)N[C@H](C(=O)NCCn2ncc(C3CC3)n2)CC(=O)N1C [Example 779, (9S,13S,19aS,22R)-22-benzyl-N-(2-(4-cyclopropyl-2H-1,2,3-triazol-2-yl)ethyl)-5-fluoro-13-isobutyl-12-methyl-7,11,14,20-tetraoxo-7,8,9,10,11,12,13,14,17,18,19,19a,20,21,22,23-hexadecahydro-16H-pyrido[2′,11:6,7][1]oxa[4,7,10,14]tetraazacycloheptadecino[16,17-f]quinoline-9-carboxamide] |

| Structure (SMILES) | EC50 [nM] | Emax [%] |
| --- | --- | --- |
| COc1cccc(CCNC(=O)[C@@H]2CC(=O)N(C)[C@@H](CC(C)C)C(=O)N(C)[C@H](C)C(=O)N[C@H](Cc3ccccc3)COc3ccnc(OC)c3C(=O)N2)c1 [Example 768, (3R,6R,9S,13S)-3-benzyl-9-isobutyl-16-methoxy-N-(3-methoxyphenethyl)-6,7,10-trimethyl-5,8,11,15-tetraoxo-2,3,4,5,6,7,8,9,10,11,12,13,14,15-tetradecahydropyrido[3,4-p][1]oxa[4,7,10,14]tetraazacycloheptadecine-13-carboxamide] | 497 | 292 |
| CC[C@@H]1C(=O)N[C@H](Cc2ccccc2)COc2cc(C)nc(OC)c2C(=O)N[C@H](C(=O)NCCc2cccc(OC)c2)CC(=O)N(C)[C@@H](CC(C)C)C(=O)N1C [Example 774, (3R,6R,9S,13S)-3-benzyl-6-ethyl-9-isobutyl-16-methoxy-N-(3-methoxyphenethyl)-7,10,18-trimethyl-5,8,11,15-tetraoxo-2,3,4,5,6,7,8,9,10,11,12,13,14,15-tetradecahydropyrido[3,4-p][1]oxa[4,7,10,14]tetraazacycloheptadecine-13-carboxamide] | 751 | 345 |
